Target: T1, human NOX4 (Homo sapiens, UniProt Q9NPH5)
T1 construct: The full-length human NOX4 (NM_016931.3) transcript was cloned; expressed in transfected cells
T1 sequence (Q9NPH5 1-578): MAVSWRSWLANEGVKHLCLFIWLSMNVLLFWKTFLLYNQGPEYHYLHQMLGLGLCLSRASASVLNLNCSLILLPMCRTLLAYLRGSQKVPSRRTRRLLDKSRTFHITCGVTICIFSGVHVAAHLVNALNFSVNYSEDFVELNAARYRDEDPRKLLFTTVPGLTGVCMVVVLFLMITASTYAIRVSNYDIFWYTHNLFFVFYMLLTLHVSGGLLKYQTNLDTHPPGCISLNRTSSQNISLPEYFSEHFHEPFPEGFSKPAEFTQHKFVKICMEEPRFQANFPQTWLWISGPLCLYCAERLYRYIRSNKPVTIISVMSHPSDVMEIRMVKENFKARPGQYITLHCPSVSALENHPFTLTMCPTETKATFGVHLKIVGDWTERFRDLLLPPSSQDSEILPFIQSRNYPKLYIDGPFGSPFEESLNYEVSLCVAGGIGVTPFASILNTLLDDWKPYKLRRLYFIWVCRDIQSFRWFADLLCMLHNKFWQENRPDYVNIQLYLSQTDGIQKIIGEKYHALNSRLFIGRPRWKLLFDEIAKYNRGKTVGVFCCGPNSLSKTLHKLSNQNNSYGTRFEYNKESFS
T1 sequence (P13498 1-195 partner): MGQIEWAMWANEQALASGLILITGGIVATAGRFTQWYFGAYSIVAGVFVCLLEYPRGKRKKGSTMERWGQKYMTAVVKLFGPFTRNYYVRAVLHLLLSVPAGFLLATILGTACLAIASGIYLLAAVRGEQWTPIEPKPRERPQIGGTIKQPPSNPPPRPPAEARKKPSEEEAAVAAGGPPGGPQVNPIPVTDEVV
Test: Amplex Red activity assay (cellular H2O2 formation in hNOX4 T-REx-293 cells)
Type: cell-based
Conditions: tet-induced 24 h, extracellular H2O2 by Amplex Red, 60 min 25° C., geometric mean if determined several times
In short: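 Tet-induced (1 μg/mL, 24 h) HEK293 T-REx cells stably expressing full-length human NOX4, 20 000 cells/well, exposed to compounds (10 concentrations, 50 μM to 100 nM; 1.25% DMSO) for 60 min at 25°C. Extracellular H2O2 detected by Amplex Red resorufin fluorescence (ex 550/em 600 nm) versus vehicle; IC50 calculated.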

| IC50 [µM] | SMILES |
| --- | --- |
| 2.44 | CN1CCOc2ccc(C(=O)Nc3ccc4oc(N5CCC56CCOC6)nc4c3)cc21 (stereo not shown) [Example 181, 4-Methyl-3,4-dihydro-2H-benzo[1,4]oxazine-6-carboxylic acid [2-(6-oxa-1-aza-spiro[3.4]oct-1-yl)-benzooxazol-5-yl]-amide] |
| 3.39 | CN1CCOc2ccc(C(=O)Nc3ccc4oc(N5CCC56CCOCC6)nc4c3)cc21 [Example 182, 4-Methyl-3,4-dihydro-2H-benzo[1,4]oxazine-6-carboxylic acid [2-(7-oxa-1-aza-spiro[3.5]non-1-yl)-benzooxazol-5-yl]-amide] |
| 8.7 | CN1CCOc2ccc(C(=O)Nc3ccc4oc(N5CCCC5)nc4c3)cc21 [Example 183, 4-Methyl-3,4-dihydro-2H-benzo[1,4]oxazine-6-carboxylic acid (2-pyrrolidin-1-yl-benzooxazol-5-yl)-amide] |
| 1.89 | CN1CCOc2ccc(C(=O)Nc3ccc4oc(N5CCCC56COC6)nc4c3)cc21 [Example 184, 4-Methyl-3,4-dihydro-2H-benzo[1,4]oxazine-6-carboxylic acid [2-(2-oxa-5-aza-spiro[3.4]oct-5-yl)-benzooxazol-5-yl]-amide] |
| 3.86 | CN1CCOc2ccc(C(=O)Nc3ccc4oc(N5CCCCC5)nc4c3)cc21 [Example 185, 4-Methyl-3,4-dihydro-2H-benzo[1,4]oxazine-6-carboxylic acid (2-piperidin-1-yl-benzooxazol-5-yl)-amide] |
| 3.45 | CN1CCOc2ccc(C(=O)Nc3ccc4oc(N5CCC(O)CC5)nc4c3)cc21 [Example 186, 4-Methyl-3,4-dihydro-2H-benzo[1,4]oxazine-6-carboxylic acid [2-(4-hydroxy-piperidin-1-yl)-benzooxazol-5-yl]-amide] |
| 3.39 | CN1CCOc2ccc(C(=O)Nc3ccc4oc(N5CCC(F)(F)CC5)nc4c3)cc21 [Example 187, 4-Methyl-3,4-dihydro-2H-benzo[1,4]oxazine-6-carboxylic acid [2-(4,4-difluoro-piperidin-1-yl)-benzooxazol-5-yl]-amide] |
| 3.64 | CN1CCOc2ccc(C(=O)Nc3ccc4oc(N5CCCC(F)(F)C5)nc4c3)cc21 [Example 188, 4-Methyl-3,4-dihydro-2H-benzo[1,4]oxazine-6-carboxylic acid [2-(3,3-difluoro-piperidin-1-yl)-benzooxazol-5-yl]-amide] |
| 2.19 | CN1CCOc2ccc(C(=O)Nc3ccc4oc(N5CCCC6(COC6)C5)nc4c3)cc21 [Example 189, 4-Methyl-3,4-dihydro-2H-benzo[1,4]oxazine-6-carboxylic acid [2-(2-oxa-6-aza-spiro[3.5]non-6-yl)-benzooxazol-5-yl]-amide] |
| 3.58 | CN1CCOc2ccc(C(=O)Nc3ccc4oc(N5CCC6(CC5)COC6)nc4c3)cc21 [Example 190, 4-Methyl-3,4-dihydro-2H-benzo[1,4]oxazine-6-carboxylic acid [2-(2-oxa-7-aza-spiro[3.5]non-7-yl)-benzooxazol-5-yl]-amide] |
| 4.38 | COC1CCN(c2nc3cc(NC(=O)c4ccc5c(c4)N(C)CCO5)ccc3o2)CC1 [Example 191, 4-Methyl-3,4-dihydro-2H-benzo[1,4]oxazine-6-carboxylic acid [2-(4-methoxy-piperidin-1-yl)-benzooxazol-5-yl]-amide] |
| 4.32 | CN1CCOc2ccc(C(=O)Nc3ccc4oc(N5CCOCC5)nc4c3)cc21 [Example 192, 4-Methyl-3,4-dihydro-2H-benzo[1,4]oxazine-6-carboxylic acid (2-morpholin-4-yl-benzooxazol-5-yl)-amide] |
| 4.04 | CN1CCN(c2nc3cc(NC(=O)c4ccc5c(c4)N(C)CCO5)ccc3o2)CC1 [Example 193, 4-Methyl-3,4-dihydro-2H-benzo[1,4]oxazine-6-carboxylic acid [2-(4-methyl-piperazin-1-yl)-benzooxazol-5-yl]-amide] |
| 3.58 | CCN(CC)c1nc2cc(NC(=O)c3ccc4c(c3)N(C)CCO4)ccc2o1 [Example 194, 4-Methyl-3,4-dihydro-2H-benzo[1,4]oxazine-6-carboxylic acid (2-diethylamino-benzooxazol-5-yl)-amide] |
| 4.44 | CN1CCOc2ccc(C(=O)Nc3ccc4oc(N(C5CC5)C5COC5)nc4c3)cc21 [Example 195, 4-Methyl-3,4-dihydro-2H-benzo[1,4]oxazine-6-carboxylic acid [2-(cyclopropyl-oxetan-3-yl-amino)-benzooxazol-5-yl]-amide] |
| 2.56 | O=C(Nc1ccc2c(c1)CCO2)c1ccc2sc(N3CCCCC3)nc2c1 [Example 196, 2-Piperidin-1-yl-benzothiazole-5-carboxylic acid (2,3-dihydro-benzofuran-5-yl)-amide] |

| IC50 [µM] | SMILES |
| --- | --- |
| 0.728 | O=C(Nc1ccc2c(c1)CCO2)c1ccc2sc(N3CCC34COC4)nc2c1 [Example 197, 2-(6-Oxa-1-aza-spiro[3.3]hept-1-yl)-benzothiazole-5-carboxylic acid (2,3-dihydro-benzofuran-5-yl)-amide] |
| 45.2 | O=C(Nc1ccc2c(c1)CCO2)c1ccc2sc(N3CCC(F)(F)CC3)nc2c1 [Example 198, 2-(4,4-Difluoro-piperidin-1-yl)-benzothiazole-5-carboxylic acid (2,3-dihydro-benzofuran-5-yl)-amide] |
| 23.9 | O=C(Nc1ccc2c(c1)CCO2)c1ccc2sc(N3CCS(=O)(=O)CC3)nc2c1 [Example 199, 2-(1,1-Dioxo-thiomorpholin-4-yl)-benzothiazole-5-carboxylic acid (2,3-dihydro-benzofuran-5-yl)-amide] |
| 2.75 | COC1CCN(c2nc3cc(C(=O)Nc4ccc5c(c4)CCO5)ccc3s2)CC1 [Example 200, 2-(4-Methoxy-piperidin-1-yl)-benzothiazole-5-carboxylic acid (2,3-dihydro-benzofuran-5-yl)-amide] |
| 2.87 | CN1CCN(c2nc3cc(C(=O)Nc4ccc5c(c4)CCO5)ccc3s2)CC1 [Example 201, 2-(4-Methyl-piperazin-1-yl)-benzothiazole-5-carboxylic acid (2,3-dihydro-benzofuran-5-yl)-amide] |
| 0.729 | O=C(Nc1ccc2c(c1)CCO2)c1ccc2sc(N3CCC34CCOC4)nc2c1 (stereo not shown) [Example 202, 2-(6-Oxa-1-aza-spiro[3.4]oct-1-yl)-benzothiazole-5-carboxylic acid (2,3-dihydro-benzofuran-5-yl)-amide] |
| 1.84 | O=C(Nc1ccc2c(c1)OCCO2)c1ccc2sc(N3CCC34COC4)nc2c1 [Example 203, 2-(6-Oxa-1-aza-spiro[3.3]hept-1-yl)-benzothiazole-5-carboxylic acid (2,3-dihydro-benzo[1,4]dioxin-6-yl)-amide] |
| 25.5 | O=C(Nc1ccc2c(c1)OCCO2)c1ccc2sc(N3CCC(F)(F)CC3)nc2c1 [Example 204, 2-(4,4-Difluoro-piperidin-1-yl)-benzothiazole-5-carboxylic acid (2,3-dihydro-benzo[1,4]dioxin-6-yl)-amide] |
| 26.8 | COC1CCN(c2nc3cc(C(=O)Nc4ccc5c(c4)OCCO5)ccc3s2)CC1 [Example 205, 2-(4-Methoxy-piperidin-1-yl)-benzothiazole-5-carboxylic acid (2,3-dihydro-benzo[1,4]dioxin-6-yl)-amide] |
| 21.2 | CN1CCN(c2nc3cc(C(=O)Nc4ccc5c(c4)OCCO5)ccc3s2)CC1 [Example 206, 2-(4-Methyl-piperazin-1-yl)-benzothiazole-5-carboxylic acid (2,3-dihydro-benzo[1,4]dioxin-6-yl)-amide] |
| 12.8 | O=C(Nc1ccc2c(c1)OCCO2)c1ccc2sc(N3CCCCC3)nc2c1 [Example 207, 2-Piperidin-1-yl-benzothiazole-5-carboxylic acid (2,3-dihydro-benzo[1,4]dioxin-6-yl)-amide] |
| 2.71 | O=C(Nc1ccc2c(c1)OCCO2)c1ccc2sc(N3CCC34CCOC4)nc2c1 (stereo not shown) [Example 208, 2-(6-Oxa-1-aza-spiro[3.4]oct-1-yl)-benzothiazole-5-carboxylic acid (2,3-dihydro-benzo[1,4]dioxin-6-yl)-amide] |
| 1.5 | O=C(Nc1ccc2c(c1)OCO2)c1ccc2sc(N3CCC34COC4)nc2c1 [Example 209, 2-(6-Oxa-1-aza-spiro[3.3]hept-1-yl)-benzothiazole-5-carboxylic acid benzo[1,3]dioxol-5-ylamide] |
| 6.9 | COC1CCN(c2nc3cc(C(=O)Nc4ccc5c(c4)OCO5)ccc3s2)CC1 [Example 210, 2-(4-Methoxy-piperidin-1-yl)-benzothiazole-5-carboxylic acid benzo[1,3]dioxol-5-ylamide] |
| 8.9 | CN1CCN(c2nc3cc(C(=O)Nc4ccc5c(c4)OCO5)ccc3s2)CC1 [Example 211, 2-(4-Methyl-piperazin-1-yl)-benzothiazole-5-carboxylic acid benzo[1,3]dioxol-5-ylamide] |

Source: US11136317B2, “NADPH oxidase 4 inhibitors” (ACTELION PHARMACEUTICALS LTD, priority 2015, dated 2021)
